# According to patent US20120108431A1, “PLANT GROWTH REGULATOR ADDITIVE” (TAMINCO, NAAMLOZE VENNOOTSCHAP, priority 2009, published 2012):
# What was measured:
# Assay type in all cases: in vivo
# [1] = test system: Soybean; test: Soybean Trial 1, pot trial, foliar spray at V2-V3; conditions: for Final Seed Yield at Harvest (g per pot): one plant per pot; for Rooting (0-9) + 28 Days: score 0-9, 28 days after spraying
# [2] = test system: Navy bean cv Primel; test: Navy bean Trial 2, pot trial, foliar spray at V2-V3; conditions: for Final Seed Yield at Harvest (g per pot): one plant per pot; for Rooting (0-9) + 28 Days: score 0-9, 28 days after spraying
# [3] = test system: Winter wheat cv Limerick; test: Winter wheat Trial 3, pot trial, sprayed at GS23; conditions: for Total No of Shoots/Plant at GS33 / Total No of “Large” Shoots/Plant at GS33 / Rooting (0-9) + 28 Days / Final Seed Yield + % / Rooting + % / Total No of Shoots/Plant + % / Total No of “Large” Shoots/Plant + %: winter wheat pots; for Rooting (0-9) + 28 Days: score 0-9, 28 days after spraying; for Final Seed Yield + % / Rooting + % / Total No of Shoots/Plant + % / Total No of “Large” Shoots/Plant + %: increase over the line given as 0 (untreated or growth regulator alone); for Final Seed Yield at Harvest (g per pot): winter wheat, eight plants per pot
# Experimental: The applied concentration of chemical can vary widely depending on the water volume applied to plants as well as other factors such as plant age and size, and plant sensitivity to the product. […] The rate of other components such as spreaders and stickers can be 50-200 ml per ha. C. […] Sprayed: 10 June, at GS23 (early-mid tillering). Plants were scored/assessed at GS33 on 12 July, with other measurements at crop maturity.
# [4] = soybean, increase over the line given as 0 (untreated or growth regulator alone)
# [5] = navy bean, increase over the line given as 0 (untreated or growth regulator alone)
Structure (SMILES),No of Large Pod Bearing Branches/Plant at Harvest ([1]; soybean),Final Seed Yield at Harvest (g per pot) ([1]; soybean),Plant Biomass Score (0-9) at Harvest ([1]; soybean),Rooting (0-9) + 28 Days ([1]; soybean),"No of Large Pod Bearing Branches/Plant + % [1, 4] [%]","Plant Biomass Score + % [1, 4] [%]",No of Large Pod Bearing Branches/Plant at Harvest ([2]; navy bean),Final Seed Yield at Harvest (g per pot) ([2]; navy bean),Plant Biomass Score (0-9) at Harvest ([2]; navy bean),Rooting (0-9) + 28 Days ([2]; navy bean),"No of Large Pod Bearing Branches/Plant + % [2, 5] [%]","Plant Biomass Score + % [2, 5] [%]",Total No of Shoots/Plant at GS33 [3],Total No of “Large” Shoots/Plant at GS33 [3],Rooting (0-9) + 28 Days [3],Final Seed Yield + % [3] [%],Rooting + % [3] [%],Total No of Shoots/Plant + % [3] [%],Total No of “Large” Shoots/Plant + % [3] [%],Final Seed Yield at Harvest (g per pot) [3] [g per pot],further results
"CC(=O)Nc1ccc(O)cc1 [AC, N-(4-hydroxypheyl)acetamide]",1.0,34.0,5.2,4.2,0,0,1.0,52.4,5.2,7.0,0,0,3.0,2.0,5.4,0,0,0,0,33.9,"Final Seed Yield + % [1, 4]: 2%; Rooting + % [1, 4]: 0%; Final Seed Yield + % [2, 5]: 8%; Rooting + % [2, 5]: 0%"
"Nc1ccccc1C(=O)O [AN, anthranilic acid]",1.0,34.8,5.2,4.3,0,0,1.0,52.0,5.2,7.2,0,0,3.0,2.0,5.4,0,0,0,0,33.6,Final Seed Yield + % ([1]; in vivo): 5%; Rooting + % ([1]; in vivo): 2%; Final Seed Yield + % ([2]; in vivo): 7%; Rooting + % ([2]; in vivo): 3%
"CC1(C)CCC(Cc2ccc(Cl)cc2)C1(O)Cn1cncn1 (stereo not drawn) [MET2, Metconazole]",1.0,36.6,6.0,5.2,0,0,1.2,57.4,5.1,7.0,0,0,3.8,2.6,6.0,0,0,0,0,36.0,"Final Seed Yield + % [1, 4]: 0%; Rooting + % [1, 4]: 0%; Final Seed Yield + % [2, 5]: 0%; Rooting + % [2, 5]: 0%"
"CC1(C)CCC(Cc2ccc(Cl)cc2)C1(O)Cn1cncn1 (stereo not drawn) [MET, Metconazole]",1.1,36.6,6.0,5.2,0,0,1.2,57.2,5.2,7.0,0,0,3.8,2.6,6.0,0,0,0,0,36.2,"Final Seed Yield + % [1, 4]: 0%; Rooting + % [1, 4]: 0%; Final Seed Yield + % [2, 5]: 0%; Rooting + % [2, 5]: 0%"
"CCOC(=O)C1CC(=O)C(=C(O)C2CC2)C(=O)C1 (stereo not drawn) [MOD, Trinexapac-ethyl]",1.0,36.2,6.2,4.4,0,0,1.2,56.1,5.6,7.2,0,0,3.8,2.6,6.4,0,0,0,0,35.4,"Final Seed Yield + % [1, 4]: 0%; Rooting + % [1, 4]: 0%; Final Seed Yield + % [2, 5]: 0%; Rooting + % [2, 5]: 0%"
